# Experimental data taken from US20150259344A1, “IMIDAZOLE DERIVATIVE” (DAINIPPON SUMITOMO PHARMA CO., LTD., priority 2012, published 2015).
# Target: T1, human α7 nAChR (Homo sapiens, UniProt P36544)
# T1 construct: expressed in transfected cells
# Assay: Evaluation of PAM activity with human α7 nACh receptor stably expressing cells (aequorin luminescence, FDSS7000)
# Format: cell-based
# Conditions: 1 μM test compound (values marked *, footnote of Table 25); ACh at EC20; ratio of RLU (Max-Min) to control wells; read-out: α7PAM (%) @1 μM
# Description: Evaluation of PAM activity with human α7 nACh receptor stably expressing cells
# (1) Human α7 nAChR stably expressing cells
# Human α7 nAChR stably expressing cells were generated and cultured.
# Thus, the cells were subcultured.
# Seven days after subculturing, the cells were treated with TrypLE Express to collect them when they were about 80% confluent.
# On the next day after seeding, Viviren (cat#E649X, Promega, Madison, Wis., USA) was added to the medium so that the final concentration could be 4 μM (15 μL/well). The plates were centrifuged and then placed in the dark for 4 hours at room temperature.
# (2) Preparation of the Test Samples
# Each of the test compounds was dissolved in DMSO to prepare each test sample at a concentration of 1000-fold the final concentration. To the solution was added Hanks/20 mM HEPES/0.2% BSA (cat#A3803, Sigma, St. Louis, Mo., USA), and the concentration was adjusted to 6-fold the final concentration.
# (3) Evaluation of PAM Activity
# FDSS7000 (Hamamatsu Photonics) was used to detect the luminescence signal evoked by α7 nAChR stimulation. The cells and a luminescent substrate were put on a plate, and the test sample was added thereto. […] The ratio of the RLU (Max-Min) of the test-compound-containing wells to that of the control wells was defined as PAM activity.
# T1 sequence (P36544 23-502): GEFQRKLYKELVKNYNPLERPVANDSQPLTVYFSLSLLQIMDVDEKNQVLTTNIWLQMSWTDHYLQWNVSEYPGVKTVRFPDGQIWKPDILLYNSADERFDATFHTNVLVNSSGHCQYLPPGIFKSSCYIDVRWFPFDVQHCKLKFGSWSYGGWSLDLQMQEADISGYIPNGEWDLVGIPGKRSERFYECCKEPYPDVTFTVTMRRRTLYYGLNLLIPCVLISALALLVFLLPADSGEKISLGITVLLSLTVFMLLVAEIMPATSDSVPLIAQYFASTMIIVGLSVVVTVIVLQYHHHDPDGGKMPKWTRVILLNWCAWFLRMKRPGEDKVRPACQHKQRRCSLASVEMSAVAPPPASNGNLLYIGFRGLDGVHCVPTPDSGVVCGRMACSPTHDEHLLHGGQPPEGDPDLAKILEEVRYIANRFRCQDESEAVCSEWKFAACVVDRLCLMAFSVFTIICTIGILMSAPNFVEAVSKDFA
row,activity at 1 µM [%],SMILES
1,323,O=C(N[C@H]1CC[C@@H](n2cnc(-c3ccc(C(F)(F)F)cc3)c2)CC1)C1CCC(F)(F)CC1 [Example 162]
2,380,CC(C)(F)C(=O)N[C@H]1CC[C@@H](n2cnc(-c3cc(F)cc(F)c3)c2C#N)CC1 [Example 343]
3,126,O=C(NC1CCOCC1)[C@H]1CC[C@@H](n2cnc(-c3cccc(F)c3F)c2)CC1 [Example 358]
4,682,O=C(N[C@H]1CC[C@@H](n2cnc(-c3ccc(F)cc3)c2Cl)CC1)C1CCCC1 [Example 182]
5,126,COC1CCC(NC(=O)N2CCC(n3cnc(-c4ccc(F)cc4)c3)CC2)CC1 (stereo not shown) [Example 33]

# The next lines start with the molecule.
row,SMILES,activity at 1 µM [%]
1,N#Cc1c(-c2ccc(F)cc2F)ncn1[C@H]1C[C@H]2CC[C@@H](C1)N2C(=O)C1CCC(F)(F)CC1 [Example 443],368
2,O=C(C1CCC(F)(F)CC1)N1[C@@H]2CC[C@H]1C[C@H](n1cnc(-c3cc(F)ccc3F)c1)C2 [Example 451],143
3,O=C(NCC1CCCCC1)N1CCC(n2cnc(-c3c(F)cccc3F)c2)CC1 [Example 11],116
4,CC(C)(F)C(=O)N[C@H]1CC[C@@H](n2cnc(-c3cc(Cl)c(F)cc3F)c2)CC1 [Example 318],179

# Same assay, conditions: 10 μM test compound; ACh at EC20; ratio of RLU (Max-Min) to control wells; read-out: α7PAM (%) @10 μM
row,activity at 10 µM [%],SMILES
1,899,O=C(NC1CCOCC1)N1CCC(n2cnc(-c3cccc(F)c3)c2Cl)CC1 [Example 253]
2,692,N#Cc1c(-c2ccc(Cl)cc2)ncn1C1CCN(C(=O)C2CCC(F)(F)CC2)CC1 [Example 159]
3,369,CC(C)(F)C(=O)N[C@H]1CC[C@@H](n2cnc(-c3ccc(F)c(F)c3)c2C#N)CC1 [Example 342]
4,781,O=C(C1CCOCC1)N1CCC(n2cnc(-c3ccc(Cl)cc3)c2Cl)CC1 [Example 264]
5,498,O=C(N[C@H]1CC[C@@H](n2cnc(-c3ccc(C(F)(F)F)cc3)c2Cl)CC1)C1CCC1 [Example 196]
6,175,O=C(NC1CCOCC1)N1CCC(n2cnc(-c3cccc(F)c3)c2)CC1 [Example 244]
7,641,O=C(N[C@H]1CC[C@@H](n2cnc(-c3ccc(F)cc3)c2Cl)CC1)C1CCC1 [Example 181]
8,244,Cc1c(-c2ccc(F)cc2)ncn1C1CCN(C(=O)C2CCOCC2)CC1 [Example 276]
9,131,CC(C)(F)C(=O)N[C@H]1CC[C@@H](n2cnc(-c3ccc(OC(F)(F)F)c(F)c3)c2C#N)CC1 [Example 348]
10,192,CC(C)(F)C(=O)N[C@H]1CC[C@@H](n2cnc(-c3cccc(F)c3)c2C#N)CC1 [Example 338]
11,367,N#Cc1c(-c2cccc(Cl)c2)ncn1C1CCN(C(=O)C2CCC(F)(F)CC2)CC1 [Example 160]
12,351,CC(C)(F)C(=O)N[C@H]1CC[C@@H](n2cnc(-c3cccc(F)c3F)c2C#N)CC1 [Example 339]
13,538,N#Cc1c(-c2ccccc2)ncn1C1CCN(C(=O)C2CCCCC2)CC1 [Example 153]
14,966,N#Cc1c(-c2ccc(F)cc2)ncn1[C@H]1CC[C@@H](C(=O)NC2CCOCC2)CC1 [Example 373]
15,426,N#Cc1c(-c2cc(F)cc(F)c2)ncn1[C@H]1CC[C@@H](C(=O)NC2CCOCC2)CC1 [Example 376]
16,132,N#Cc1c(-c2cccc(C(F)(F)F)c2)ncn1C1CCN(C(=O)C2CCC(F)(F)CC2)CC1 [Example 158]
17,252,N#Cc1c(-c2cccc(F)c2)ncn1C1CCN(C(=O)C2CCC(F)(F)CC2)CC1 [Example 155]
18,351,N#Cc1c(-c2cc(F)ccc2F)ncn1C1CCN(C(=O)C2CCC(F)(F)CC2)CC1 [Example 274]
19,637,"CC(C)(F)C(=O)N[C@H]1CC[C@@H](n2cnc(-c3ccccc3)c2C#N)CC1 [Example 197, N-[cis-4-(5-cyano-4-phenyl-1H-imidazol-1-yl)cyclohexyl]-2-fluoro-2-methylpropanamide]"

# The remaining lines, values behind:
row,SMILES,activity at 10 µM [%]
1,CC(C)(F)C(=O)N1CCC(n2cnc(-c3ccc(F)cc3)c2Cl)CC1 [Example 263],193
2,CC(C)(C)C(=O)N[C@H]1CC[C@@H](n2cnc(-c3ccc(Cl)cc3)c2)CC1 [Example 281],411
3,O=C(NC1CCCCC1)N1[C@@H]2CC[C@H]1C[C@H](n1cnc(-c3ccc(F)cc3)c1)C2 [Example 405],402
4,O=C(NC1CCCCC1)N1CCC(n2cnc(-c3ccc(OC(F)F)cc3)c2)CC1 [Example 54],371
5,O=C(C1CCC(F)(F)CC1)N1[C@@H]2CC[C@H]1C[C@@H](n1cnc(-c3ccccc3F)c1Cl)C2 [Example 434],512
6,COc1ccc(-c2cn([C@H]3CC[C@@H](NC(=O)C(C)(C)F)CC3)cn2)c(F)c1 [Example 307],634
7,O=C(NC1CCC(F)(F)CC1)N1CCC(n2cnc(-c3ccc4c(c3)CCO4)c2)CC1 [Example 44],880
8,O=C(NC1CCCCC1)N1CCC(n2cnc(-c3ccccc3)c2CO)CC1 [Example 110],201
9,"O=C(N[C@H]1CC[C@H](C(F)(F)F)CC1)N1CCC(n2cnc(-c3cccc(F)c3)c2)CC1 [Example 3, 4-[4-(3-Fluorophenyl)-1H-imidazol-1-yl]-N-[trans-4-(trifluoromethyl)cyclohexyl]piperidine-1-carboxamide]",493
10,CCOc1ccc(-c2cn(C3CCN(C(=O)C4CCC(F)(F)CC4)CC3)cn2)cc1 [Example 147],484
11,Cc1c(-c2ccccc2)ncn1C1CCN(C(=O)NC2CCCCC2)CC1 [Example 102],641
12,O=C(C1CCOCC1)N1[C@@H]2CC[C@H]1C[C@H](n1cnc(-c3cc(F)ccc3F)c1Cl)C2 [Example 460],390
13,O=C(NC1CCCCC1)N1CCC(n2cnc(-c3ccccc3)c2)CC1 [Example 37],366
14,O=C(N[C@H]1CC[C@H](n2cnc(-c3ccccc3)c2)CC1)C1CCCCC1 [Example 204],172
15,CC(C)(C)NC(=O)N1CCC(n2cnc(-c3ccccc3)c2C#N)CC1 [Example 100],708
16,CC(C)(F)C(=O)N[C@H]1CC[C@@H](n2cnc(-c3cccc(F)c3F)c2)CC1 [Example 299],893
17,O=C(NC1CCCCC1)N1CCC(n2cnc(-c3ccc(F)c(F)c3)c2)CC1 [Example 26],563

row,SMILES,activity at 10 µM [%]
1,COC1CCC(NC(=O)N2CCC(n3cnc(-c4ccc(C(F)(F)F)cc4)c3)CC2)CC1 (stereo not shown) [Example 52],205
2,O=C(NC1CCC(F)(F)CC1)N1CCC(n2cnc(-c3ccccc3)c2)CC1 [Example 39],823
3,O=C(C1CCC(F)(F)CC1)N1[C@@H]2CC[C@H]1C[C@H](n1cnc(-c3ccccc3)c1)C2 [Example 449],183
4,O=C(C1CCC(F)(F)CC1)N1[C@@H]2CC[C@H]1C[C@@H](n1cnc(-c3ccc(F)cc3)c1Cl)C2 [Example 431],836
5,O=C(NC1CCCCC1)N1CCC(n2cnc(-c3ccc(Cl)cc3)c2)CC1 [Example 20],656
6,N#Cc1c(-c2ccc(F)cc2F)ncn1[C@H]1C[C@H]2CC[C@@H](C1)N2C(=O)NC1CCC(F)(F)CC1 [Example 402],498
7,O=C(N[C@H]1CC[C@@H](n2cnc(-c3ccc(Cl)cc3)c2)CC1)C(F)F [Example 292],101
8,COC1CCC(NC(=O)N2CCC(n3cnc(-c4ccccc4)c3)CC2)CC1 (stereo not shown) [Example 40],129
9,"CC(C)(F)C(=O)N[C@H]1CC[C@@H](n2cnc(-c3ccc(Cl)cc3F)c2)CC1 [Example 283, N-{cis-4-[4-(4-chloro-2-fluorophenyl)-1H-imidazol-1-yl]cyclohexyl}-2-fluoro-2-methylpropanamide]",390
10,O=C(C1CCC(F)(F)CC1)N1CCC(n2cnc(-c3cccc(OC(F)F)c3)c2)CC1 [Example 145],363
11,O=C(NC1CCCCC1)N1CCC(n2cnc(-c3cc(F)cc(F)c3)c2)CC1 [Example 34],596
12,O=C(NC1CCCCCC1)N1CCC(n2cnc(-c3cccc(F)c3)c2)CC1 [Example 45],260
13,N#Cc1c(-c2ccc(F)cc2)ncn1[C@@H]1C[C@H]2CC[C@@H](C1)N2C(=O)NC1CCCCC1 [Example 421],426
14,O=C(NC1CCCCC1)N1CCC(n2cnc(-c3ccc4c(c3)CCO4)c2)CC1 [Example 43],250
15,O=C(NC1CCC(F)(F)CC1)N1[C@@H]2CC[C@H]1C[C@@H](n1cnc(-c3ccc(F)cc3F)c1Cl)C2 [Example 394],455
16,O=C(NC1CCCCC1)N1CCC(n2cnc(-c3cccs3)c2)CC1 [Example 123],345

# Same assay, conditions: GH4-C1, 10 μM test compound; ratio of RLU (Max-Min) of test wells to control wells after ACh at EC20; GH4C1 cells expressing human α7 nAChR and aequorin; read-out: α7PAM (%) @10 μM
row,SMILES,activity at 10 µM [%]
1,O=C(NC1CCCCC1)[C@H]1CC[C@H](n2cnc(-c3ccccc3)c2)CC1 [Example 231],149

# Same assay, conditions: comparison across Tables 18 to 25
row,PAM activity for α7 nAChR (in words),SMILES
1,stronger PAM activity than others,O=C(NC1CCOCC1)[C@H]1CC[C@@H](n2cnc(-c3cccc(Cl)c3)c2Cl)CC1 [Example 362]
2,stronger PAM activity than others,O=C(NC1CCCCC1)N1CCC(n2cnc(-c3ccccc3)c2Cl)CC1 [Example 73]
